Measured values published in patent publication US10239832B2, “N-(1-hydroxy-3-(pyrrolidinyl)propan-2-yl)pyrrolidine-3-carboxamide derivatives as glucosylceramide synthase inhibitors” (BIOMARIN PHARMACEUTICAL INC., priority 2013, dated 2019).

What follows are molecules tested against T1, GCS (Canis lupus familiaris, UniProt A0A8I3MXG6) (assay: GCS enzymatic assay (MDCK cell lysate, NBD-ceramide to glucosylceramide, LC/MS)). Settings: Table 2; class symbols A, B, C; the table does not say which of the assays; read-out: Data Range (IC50 values).
T1 construct: endogenous in cells; host or cells: MDCK (Madin-Darby canine kidney) cells, whole-cell lysate
T1 sequence (A0A8I3MXG6 1-394): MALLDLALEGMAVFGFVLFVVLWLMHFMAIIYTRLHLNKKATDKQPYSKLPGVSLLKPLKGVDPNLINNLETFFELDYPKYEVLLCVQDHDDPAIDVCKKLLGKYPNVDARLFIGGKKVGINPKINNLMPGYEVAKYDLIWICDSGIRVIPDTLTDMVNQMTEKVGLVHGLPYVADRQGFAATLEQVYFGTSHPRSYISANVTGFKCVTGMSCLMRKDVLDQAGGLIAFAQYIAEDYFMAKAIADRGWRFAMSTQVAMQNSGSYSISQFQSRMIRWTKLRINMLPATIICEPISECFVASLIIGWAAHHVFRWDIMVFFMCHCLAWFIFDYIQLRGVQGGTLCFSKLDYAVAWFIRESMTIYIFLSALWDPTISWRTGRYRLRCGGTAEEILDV
Assay type: biochemical, canine
Outline: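 IC50 or percent inhibition came from LC/MS/MS (ESI+, MRM) of NBD-ceramide and glucosylceramide, with tolbutamide as internal standard. The reaction used MDCK (canine) cell lysate as the enzyme source and was ended with acetonitrile. Mock wells received 0.1% DMSO.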

Row | IC50 | Structure (SMILES)
1 | 1 to 30 nM | O=C(N[C@H](CN1CCC1)[C@H](O)c1ccc2c(c1)OCCO2)C1CCN(c2ccc3cc(F)ccc3c2)C1 (stereo partly drawn) [Compound 79A, N-((1R,2R)-3-(azetidin-1-yl)-1-(2,3-dihydrobenzo[b][1,4]dioxin-6-yl)-1-hydroxypropan-2-yl)-1-(6-fluoronaphthalen-2-yl)pyrrolidine-3-carboxamide]
2 | 1 to 30 nM | O=C(N[C@H](CN1CCCC1)[C@H](O)c1ccc2c(c1)OCCO2)C1CCN(c2ccc3c(c2)CCCC3)C1 (stereo partly drawn) [Compound 80G, N-((1R,2R)-1-(2,3-dihydrobenzo[b][1,4]dioxin-6-yl)-1-hydroxy-3-(pyrrolidin-1-yl)propan-2-yl)-1-(5,6,7,8-tetrahydronaphthalen-2-yl)pyrrolidine-3-carboxamide]
3 | 1 to 30 nM | O=C(N[C@H](CN1CCCC1)[C@H](O)c1ccc2c(c1)OCCO2)[C@H]1CCN(c2ccc3c(c2)CCCC3)C1 [Compound 80H, (S)-N-((1R,2R)-1-(2,3-dihydrobenzo[b][1,4]dioxin-6-yl)-1-hydroxy-3-(pyrrolidin-1-yl)propan-2-yl)-1-(5,6,7,8-tetrahydronaphthalen-2-yl)pyrrolidine-3-carboxamide]
4 | 1 to 30 nM | O=C(N[C@H](CN1CCCC1)[C@H](O)c1cc(F)c2c(c1)OCCO2)[C@@H]1CCN(c2ccc3ccccc3c2)C1 [Compound 81, (R)-N-((1R,2R)-1-(8-fluoro-2,3-dihydrobenzo[b][1,4]dioxin-6-yl)-1-hydroxy-3-(pyrrolidin-1-yl)propan-2-yl)-1-(naphthalen-2-yl)pyrrolidine-3-carboxamide]
5 | 1 to 30 nM | O=C(N[C@H](CN1CCCC1)[C@H](O)c1ccc(OC2CC2)c(Cl)c1)[C@@H]1CCN(c2ccc3cc(F)ccc3c2)C1 [Compound 84, (R)-N-((1R,2R)-1-(3-chloro-4-cyclopropoxyphenyl)-1-hydroxy-3-(pyrrolidin-1-yl)propan-2-yl)-1-(6-fluoronaphthalen-2-yl)pyrrolidine-3-carboxamide]
6 | 1 to 30 nM | O=C(N[C@H](CN1CCC1)[C@H](O)c1cc(F)c2c(c1)OCCO2)[C@@H]1CCN(c2ccc3ccccc3c2)C1 [Compound 85, (R)-N-((1R,2R)-3-(azetidin-1-yl)-1-(8-fluoro-2,3-dihydrobenzo[b][1,4]dioxin-6-yl)-1-hydroxypropan-2-yl)-1-(naphthalen-2-yl)pyrrolidine-3-carboxamide]
7 | 1 to 30 nM | O=C(N[C@H](CN1CCC1)[C@H](O)c1ccc(OC2CC2)c(Cl)c1)[C@@H]1CCN(c2ccc3ccccc3c2)C1 [Compound 86, (R)-N-((1R,2R)-3-(azetidin-1-yl)-1-(3-chloro-4-cyclopropoxyphenyl)-1-hydroxypropan-2-yl)-1-(naphthalen-2-yl)pyrrolidine-3-carboxamide]
8 | 1 to 30 nM | CC(C)(O)COc1ccc([C@@H](O)[C@@H](CN2CCCC2)NC(=O)[C@@H]2CCN(c3ccc(Cl)cc3)C2)cc1Cl [Compound 87, (R)-N-((1R,2R)-1-(3-chloro-4-(2-hydroxy-2-methylpropoxy)phenyl)-1-hydroxy-3-(pyrrolidin-1-yl)propan-2-yl)-1-(4-chlorophenyl)pyrrolidine-3-carboxamide]
9 | 1 to 30 nM | O=C(N[C@H](CN1CCC1)[C@H](O)c1cc(F)c2c(c1)OCCO2)[C@@H]1CCN(c2ccc3cc(Cl)ccc3c2)C1 [Compound 89, (R)-N-((1R,2R)-3-(azetidin-1-yl)-1-(8-fluoro-2,3-dihydrobenzo[b][1,4]dioxin-6-yl)-1-hydroxypropan-2-yl)-1-(6-chloronaphthalen-2-yl)pyrrolidine-3-carboxamide]
10 | 1 to 30 nM | O=C(N[C@H](CN1CCC1)[C@H](O)c1cc(F)c2c(c1)OCCO2)C1CCN(c2ccc3cc(Cl)ccc3c2)C1 (stereo partly drawn) [Compound 89F, N-((1R,2R)-3-(azetidin-1-yl)-1-(8-fluoro-2,3-dihydrobenzo[b][1,4]dioxin-6-yl)-1-hydroxypropan-2-yl)-1-(6-chloronaphthalen-2-yl)pyrrolidine-3-carboxamide]

Same assay, conditions: Table 2; class symbols D, E, F, NA (not active); the table does not say which of the assays

Row | Structure (SMILES) | Data Range (% inhibition)
11 | O=C(N[C@H](CN1CCC1)[C@H](O)c1ccc2c(c1)OCCO2)[C@H]1CCN(c2ccc3cc(F)ccc3c2)C1 [Compound 79B, (S)-N-((1R,2R)-3-(azetidin-1-yl)-1-(2,3-dihydrobenzo[b][1,4]dioxin-6-yl)-1-hydroxypropan-2-yl)-1-(6-fluoronaphthalen-2-yl)pyrrolidine-3-carboxamide] | E (50-74% (or less than 75%))
12 | O=C(N[C@H](CN1CCCC1)[C@H](O)c1ccc2c(c1)OCCO2)[C@@H]1CCN(c2ccc3c(c2)CCCC3)C1 [Compound 80, (R)-N-((1R,2R)-1-(2,3-dihydrobenzo[b][1,4]dioxin-6-yl)-1-hydroxy-3-(pyrrolidin-1-yl)propan-2-yl)-1-(5,6,7,8-tetrahydronaphthalen-2-yl)pyrrolidine-3-carboxamide] | E (50-74% (or less than 75%))
13 | Cc1cc(N2CC[C@@H](C(=O)N[C@H](CN3CCCC3)[C@H](O)c3ccc4c(c3)OCCO4)C2)cc(C)n1 [Compound 82, (R)-N-((1R,2R)-1-(2,3-dihydrobenzo[b][1,4]dioxin-6-yl)-1-hydroxy-3-(pyrrolidin-1-yl)propan-2-yl)-1-(2,6-dimethylpyridin-4-yl)pyrrolidine-3-carboxamide] | NA (not active—a negative value was generated for % inhibition)
14 | Cc1cc(N2CC[C@H](C(=O)N[C@H](CN3CCCC3)[C@H](O)c3ccc4c(c3)OCCO4)C2)cc(C)n1 [Compound 82E, (S)-N-((1R,2R)-1-(2,3-dihydrobenzo[b][1,4]dioxin-6-yl)-1-hydroxy-3-(pyrrolidin-1-yl)propan-2-yl)-1-(2,6-dimethylpyridin-4-yl)pyrrolidine-3-carboxamide] | NA (not active—a negative value was generated for % inhibition)
15 | O=C(N[C@H](CN1CCCC1)[C@H](O)c1ccc2c(c1)OCCO2)[C@@H]1CCN(c2ccc3nccnc3c2)C1 [Compound 83, (R)-N-((1R,2R)-1-(2,3-dihydrobenzo[b][1,4]dioxin-6-yl)-1-hydroxy-3-(pyrrolidin-1-yl)propan-2-yl)-1-(quinoxalin-6-yl)pyrrolidine-3-carboxamide] | F (1-49% (or less than 50%))
16 | O=C(N[C@H](CN1CCCC1)[C@H](O)c1ccc2c(c1)OCCO2)[C@H]1CCN(c2ccc3nccnc3c2)C1 [Compound 83D, (S)-N-((1R,2R)-1-(2,3-dihydrobenzo[b][1,4]dioxin-6-yl)-1-hydroxy-3-(pyrrolidin-1-yl)propan-2-yl)-1-(quinoxalin-6-yl)pyrrolidine-3-carboxamide] | NA (not active—a negative value was generated for % inhibition)
17 | O=C(N[C@H](CN1CCCC1)[C@H](O)c1ccc2c(c1)OCCO2)[C@@H]1CCN(c2ccc3cc(F)ccc3c2Cl)C1 [Compound 88, (R)-1-(1-chloro-6-fluoronaphthalen-2-yl)-N-((1R,2R)-1-(2,3-dihydrobenzo[b][1,4]dioxin-6-yl)-1-hydroxy-3-(pyrrolidin-1-yl)propan-2-yl)pyrrolidine-3-carboxamide] | D (75-100%)

The next lines start with the values.

Row | Data Range (% inhibition) | Structure (SMILES)
18 | F (1-49% (or less than 50%)) | O=C(N[C@H](CN1CCCC1)[C@H](O)c1ccc2c(c1)OCCO2)C1CCN(c2ccc3nccnc3c2)C1 (stereo partly drawn) [Compound 83C, N-((1R,2R)-1-(2,3-dihydrobenzo[b][1,4]dioxin-6-yl)-1-hydroxy-3-(pyrrolidin-1-yl)propan-2-yl)-1-(quinoxalin-6-yl)pyrrolidine-3-carboxamide]
19 | F (1-49% (or less than 50%)) | O=C(N[C@H](CN1CCCC1)[C@H](O)c1ccc(OC2CC2)c(Cl)c1)[C@H]1CCN(c2ccc3cc(F)ccc3c2)C1 [Compound 84A, (S)-N-((1R,2R)-1-(3-chloro-4-cyclopropoxyphenyl)-1-hydroxy-3-(pyrrolidin-1-yl)propan-2-yl)-1-(6-fluoronaphthalen-2-yl)pyrrolidine-3-carboxamide]
20 | D (75-100%) | O=C(N[C@H](CN1CCCC1)[C@H](O)c1ccc2c(c1)OCCO2)C1CCN(c2ccc3cc(F)ccc3c2Cl)C1 (stereo partly drawn) [Compound 88C, 1-(1-chloro-6-fluoronaphthalen-2-yl)-N-((1R,2R)-1-(2,3-dihydrobenzo[b][1,4]dioxin-6-yl)-1-hydroxy-3-(pyrrolidin-1-yl)propan-2-yl)pyrrolidine-3-carboxamide]
21 | F (1-49% (or less than 50%)) | O=C(N[C@H](CN1CCCC1)[C@H](O)c1ccc2c(c1)OCCO2)[C@H]1CCN(c2ccc3cc(F)ccc3c2Cl)C1 [Compound 88D, (S)-1-(1-chloro-6-fluoronaphthalen-2-yl)-N-((1R,2R)-1-(2,3-dihydrobenzo[b][1,4]dioxin-6-yl)-1-hydroxy-3-(pyrrolidin-1-yl)propan-2-yl)pyrrolidine-3-carboxamide]
22 | E (50-74% (or less than 75%)) | O=C(N[C@H](CN1CCC1)[C@H](O)c1cc(F)c2c(c1)OCCO2)[C@H]1CCN(c2ccc3cc(Cl)ccc3c2)C1 [Compound 89G, (S)-N-((1R,2R)-3-(azetidin-1-yl)-1-(8-fluoro-2,3-dihydrobenzo[b][1,4]dioxin-6-yl)-1-hydroxypropan-2-yl)-1-(6-chloronaphthalen-2-yl)pyrrolidine-3-carboxamide]
